Among the targets are IR (Homo sapiens, UniProt P06213); CAMK1 (Homo sapiens, UniProt Q14012); ERK2 (Homo sapiens, UniProt P28482); MARK2 (Homo sapiens, UniProt Q7KZI7); Aurora B (Homo sapiens, UniProt Q96GD4); PLK1 (Homo sapiens, UniProt P53350); SmMLCK (Homo sapiens, UniProt Q15746); MAP4K5 (Homo sapiens, UniProt Q9Y4K4); MINK1 (Homo sapiens, UniProt Q8N4C8).
What all share (assay): Kinase profile (33P ATP filter binding)
Common to all, as to type: biochemical
Conditions in all cases: read-out: Remaining protein kinase activity

The target in another assay is T1, ERK8 (Homo sapiens, UniProt Q8TD08).
T1 sequence (Q8TD08 1-544): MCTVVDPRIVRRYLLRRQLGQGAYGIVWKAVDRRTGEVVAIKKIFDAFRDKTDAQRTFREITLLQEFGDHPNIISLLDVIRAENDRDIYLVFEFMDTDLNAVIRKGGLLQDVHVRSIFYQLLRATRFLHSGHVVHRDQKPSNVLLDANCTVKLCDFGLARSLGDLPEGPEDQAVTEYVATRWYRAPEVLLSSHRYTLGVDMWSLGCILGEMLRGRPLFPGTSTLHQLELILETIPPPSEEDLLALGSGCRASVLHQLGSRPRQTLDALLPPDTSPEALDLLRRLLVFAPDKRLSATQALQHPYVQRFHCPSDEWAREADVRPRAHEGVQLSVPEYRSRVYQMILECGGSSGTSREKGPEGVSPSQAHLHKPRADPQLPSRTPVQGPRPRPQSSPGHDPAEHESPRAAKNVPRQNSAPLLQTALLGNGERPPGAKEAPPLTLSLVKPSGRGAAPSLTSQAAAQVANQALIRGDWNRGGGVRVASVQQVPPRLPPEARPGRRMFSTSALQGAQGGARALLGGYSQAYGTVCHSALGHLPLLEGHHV

In the next assay the target is T2, TSSK1 (Homo sapiens, UniProt Q9BXA7).
T2 sequence (Q9BXA7 1-367): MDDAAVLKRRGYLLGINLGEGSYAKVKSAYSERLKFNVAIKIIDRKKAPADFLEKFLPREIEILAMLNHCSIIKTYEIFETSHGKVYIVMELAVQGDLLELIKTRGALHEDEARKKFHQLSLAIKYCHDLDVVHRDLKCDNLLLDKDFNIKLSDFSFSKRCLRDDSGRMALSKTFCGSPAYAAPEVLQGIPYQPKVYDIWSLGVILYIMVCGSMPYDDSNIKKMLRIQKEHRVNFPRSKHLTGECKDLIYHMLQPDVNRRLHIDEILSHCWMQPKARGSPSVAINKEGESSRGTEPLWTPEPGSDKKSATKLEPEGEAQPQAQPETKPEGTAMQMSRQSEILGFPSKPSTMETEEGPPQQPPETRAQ

For another assay, the target named is T3, EF2K (Homo sapiens, UniProt O00418).
T3 sequence (O00418 1-725): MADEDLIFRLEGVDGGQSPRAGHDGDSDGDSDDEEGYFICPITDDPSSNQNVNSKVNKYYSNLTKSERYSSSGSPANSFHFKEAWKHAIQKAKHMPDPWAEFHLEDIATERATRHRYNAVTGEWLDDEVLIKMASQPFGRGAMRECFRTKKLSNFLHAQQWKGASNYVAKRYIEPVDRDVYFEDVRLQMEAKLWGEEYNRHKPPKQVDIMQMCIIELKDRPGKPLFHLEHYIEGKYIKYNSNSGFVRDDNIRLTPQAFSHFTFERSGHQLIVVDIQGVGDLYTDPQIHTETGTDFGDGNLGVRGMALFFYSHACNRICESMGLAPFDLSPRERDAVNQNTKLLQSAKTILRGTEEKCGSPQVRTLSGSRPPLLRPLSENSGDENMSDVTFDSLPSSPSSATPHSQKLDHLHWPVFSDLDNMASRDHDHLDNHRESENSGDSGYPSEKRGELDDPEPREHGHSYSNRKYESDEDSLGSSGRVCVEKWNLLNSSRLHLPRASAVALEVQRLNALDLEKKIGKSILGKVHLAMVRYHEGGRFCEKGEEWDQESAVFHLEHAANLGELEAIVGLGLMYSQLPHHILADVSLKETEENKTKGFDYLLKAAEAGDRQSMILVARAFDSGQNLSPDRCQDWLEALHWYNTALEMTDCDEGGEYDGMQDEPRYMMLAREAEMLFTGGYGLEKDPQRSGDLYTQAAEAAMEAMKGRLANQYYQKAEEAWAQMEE

The record followed here is article PMC8617627, “Novel DYRK1A Inhibitor Rescues Learning and Memory Deficits in a Mouse Model of Down Syndrome” (Pharmaceuticals, 2021).

Structures are written as SMILES. Like-named read-outs stand apart in the source and are kept apart here.

Chain of MARK2 (Q7KZI7 whole entry): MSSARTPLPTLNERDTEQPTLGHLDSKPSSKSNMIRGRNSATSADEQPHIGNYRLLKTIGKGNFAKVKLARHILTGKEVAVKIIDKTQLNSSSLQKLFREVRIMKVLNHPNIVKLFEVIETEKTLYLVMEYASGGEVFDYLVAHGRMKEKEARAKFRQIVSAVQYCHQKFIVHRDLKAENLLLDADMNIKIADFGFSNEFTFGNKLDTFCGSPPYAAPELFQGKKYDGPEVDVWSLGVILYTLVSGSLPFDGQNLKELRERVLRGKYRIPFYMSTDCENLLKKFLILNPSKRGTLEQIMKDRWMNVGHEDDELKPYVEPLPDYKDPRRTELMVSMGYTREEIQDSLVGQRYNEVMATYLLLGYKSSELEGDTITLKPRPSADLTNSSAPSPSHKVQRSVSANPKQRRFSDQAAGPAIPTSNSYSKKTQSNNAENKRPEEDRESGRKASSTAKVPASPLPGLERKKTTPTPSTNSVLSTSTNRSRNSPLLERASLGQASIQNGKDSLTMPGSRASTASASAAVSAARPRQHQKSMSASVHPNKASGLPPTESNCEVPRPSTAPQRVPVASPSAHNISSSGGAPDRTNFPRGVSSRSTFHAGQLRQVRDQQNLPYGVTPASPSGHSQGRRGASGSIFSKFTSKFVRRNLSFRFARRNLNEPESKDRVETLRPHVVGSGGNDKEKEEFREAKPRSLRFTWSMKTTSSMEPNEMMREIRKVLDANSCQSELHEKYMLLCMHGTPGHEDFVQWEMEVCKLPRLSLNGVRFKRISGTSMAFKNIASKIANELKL
Chain of Aurora B (Q96GD4 whole entry): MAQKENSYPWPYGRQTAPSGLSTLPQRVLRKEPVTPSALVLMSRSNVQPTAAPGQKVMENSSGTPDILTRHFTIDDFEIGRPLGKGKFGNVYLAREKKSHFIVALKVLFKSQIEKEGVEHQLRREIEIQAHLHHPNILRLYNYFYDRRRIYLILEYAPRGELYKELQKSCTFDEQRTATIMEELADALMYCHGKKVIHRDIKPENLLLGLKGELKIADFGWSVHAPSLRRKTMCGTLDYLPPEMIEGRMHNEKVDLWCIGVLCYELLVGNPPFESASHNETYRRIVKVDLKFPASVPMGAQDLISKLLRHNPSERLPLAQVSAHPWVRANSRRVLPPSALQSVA
Chain of IR (P06213 28-1382): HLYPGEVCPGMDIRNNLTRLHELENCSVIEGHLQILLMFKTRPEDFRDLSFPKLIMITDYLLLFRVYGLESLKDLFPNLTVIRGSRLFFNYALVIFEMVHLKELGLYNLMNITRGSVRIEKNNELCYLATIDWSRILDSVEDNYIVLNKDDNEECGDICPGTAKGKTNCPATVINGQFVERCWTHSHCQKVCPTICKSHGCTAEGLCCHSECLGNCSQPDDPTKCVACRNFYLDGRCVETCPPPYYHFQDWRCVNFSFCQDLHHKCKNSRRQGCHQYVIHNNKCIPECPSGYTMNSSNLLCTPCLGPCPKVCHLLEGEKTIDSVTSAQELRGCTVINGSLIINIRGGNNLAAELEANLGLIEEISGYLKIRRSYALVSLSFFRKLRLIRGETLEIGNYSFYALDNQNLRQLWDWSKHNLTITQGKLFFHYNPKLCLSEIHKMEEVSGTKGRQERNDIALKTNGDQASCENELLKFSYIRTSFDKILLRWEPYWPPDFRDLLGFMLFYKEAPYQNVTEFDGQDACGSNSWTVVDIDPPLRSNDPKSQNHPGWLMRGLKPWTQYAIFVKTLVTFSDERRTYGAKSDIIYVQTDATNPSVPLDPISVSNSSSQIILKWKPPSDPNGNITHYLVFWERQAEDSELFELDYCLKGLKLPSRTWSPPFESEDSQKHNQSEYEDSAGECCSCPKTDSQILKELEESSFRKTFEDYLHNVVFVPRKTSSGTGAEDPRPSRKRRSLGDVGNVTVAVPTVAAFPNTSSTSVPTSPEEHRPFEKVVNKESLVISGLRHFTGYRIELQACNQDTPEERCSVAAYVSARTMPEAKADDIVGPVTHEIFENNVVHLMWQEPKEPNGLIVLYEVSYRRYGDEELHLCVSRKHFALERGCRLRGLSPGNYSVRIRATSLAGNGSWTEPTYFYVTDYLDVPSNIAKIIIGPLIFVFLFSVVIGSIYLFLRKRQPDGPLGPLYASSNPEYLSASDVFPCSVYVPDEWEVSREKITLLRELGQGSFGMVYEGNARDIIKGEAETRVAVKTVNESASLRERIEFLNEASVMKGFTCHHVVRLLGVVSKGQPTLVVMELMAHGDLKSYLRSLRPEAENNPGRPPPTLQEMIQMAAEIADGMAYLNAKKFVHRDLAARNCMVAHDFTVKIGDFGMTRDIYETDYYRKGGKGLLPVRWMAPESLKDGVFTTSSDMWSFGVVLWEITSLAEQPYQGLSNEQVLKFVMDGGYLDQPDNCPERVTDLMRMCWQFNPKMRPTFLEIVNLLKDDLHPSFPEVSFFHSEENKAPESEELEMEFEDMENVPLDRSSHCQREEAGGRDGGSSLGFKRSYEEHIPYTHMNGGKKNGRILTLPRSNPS
Chain of CAMK1 (Q14012 whole entry): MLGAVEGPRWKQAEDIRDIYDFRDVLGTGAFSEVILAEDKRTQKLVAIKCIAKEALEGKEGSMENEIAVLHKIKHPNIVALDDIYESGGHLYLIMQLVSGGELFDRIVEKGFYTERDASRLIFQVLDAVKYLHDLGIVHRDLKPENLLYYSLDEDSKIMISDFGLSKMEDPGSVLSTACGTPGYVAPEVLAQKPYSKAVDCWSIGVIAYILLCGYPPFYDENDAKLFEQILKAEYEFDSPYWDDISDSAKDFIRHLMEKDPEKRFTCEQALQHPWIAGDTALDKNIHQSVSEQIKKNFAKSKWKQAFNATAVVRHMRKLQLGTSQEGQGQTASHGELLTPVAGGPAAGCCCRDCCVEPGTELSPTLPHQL
Chain of MINK1 (Q8N4C8 whole entry): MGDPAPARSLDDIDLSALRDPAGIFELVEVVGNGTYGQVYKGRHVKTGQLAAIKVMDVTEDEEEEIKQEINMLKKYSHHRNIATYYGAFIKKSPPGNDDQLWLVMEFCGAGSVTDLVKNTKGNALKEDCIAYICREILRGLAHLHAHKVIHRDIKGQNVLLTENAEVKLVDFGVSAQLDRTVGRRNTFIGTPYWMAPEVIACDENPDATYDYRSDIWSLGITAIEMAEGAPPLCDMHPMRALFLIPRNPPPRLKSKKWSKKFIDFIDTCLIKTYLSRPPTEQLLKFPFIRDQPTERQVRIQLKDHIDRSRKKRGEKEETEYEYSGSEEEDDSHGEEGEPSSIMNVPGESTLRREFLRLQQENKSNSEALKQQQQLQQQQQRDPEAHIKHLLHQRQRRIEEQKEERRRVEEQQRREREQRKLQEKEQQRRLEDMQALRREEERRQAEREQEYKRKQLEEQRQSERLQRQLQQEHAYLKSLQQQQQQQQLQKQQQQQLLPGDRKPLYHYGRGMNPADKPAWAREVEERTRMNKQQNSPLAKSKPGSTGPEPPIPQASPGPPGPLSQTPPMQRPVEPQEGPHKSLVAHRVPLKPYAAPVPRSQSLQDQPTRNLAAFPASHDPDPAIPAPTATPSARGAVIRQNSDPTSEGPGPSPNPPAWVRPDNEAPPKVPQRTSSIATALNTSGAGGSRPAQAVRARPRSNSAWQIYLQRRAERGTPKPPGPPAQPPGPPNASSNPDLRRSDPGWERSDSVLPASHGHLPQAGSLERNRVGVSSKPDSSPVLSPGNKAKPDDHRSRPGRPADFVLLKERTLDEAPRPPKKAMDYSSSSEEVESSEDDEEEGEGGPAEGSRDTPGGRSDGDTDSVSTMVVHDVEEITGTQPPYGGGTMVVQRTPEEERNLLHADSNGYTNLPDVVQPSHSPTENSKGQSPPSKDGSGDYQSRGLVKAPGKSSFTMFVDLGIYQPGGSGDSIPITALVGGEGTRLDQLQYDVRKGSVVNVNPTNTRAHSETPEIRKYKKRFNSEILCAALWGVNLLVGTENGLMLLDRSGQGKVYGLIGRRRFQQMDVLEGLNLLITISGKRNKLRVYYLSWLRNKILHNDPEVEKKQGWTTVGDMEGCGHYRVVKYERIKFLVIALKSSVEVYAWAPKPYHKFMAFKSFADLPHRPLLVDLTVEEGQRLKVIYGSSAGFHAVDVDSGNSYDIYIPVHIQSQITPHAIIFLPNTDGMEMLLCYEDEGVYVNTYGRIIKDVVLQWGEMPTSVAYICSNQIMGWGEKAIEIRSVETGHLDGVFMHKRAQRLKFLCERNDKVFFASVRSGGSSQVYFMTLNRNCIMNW
Chain of MAP4K5 (Q9Y4K4 whole entry): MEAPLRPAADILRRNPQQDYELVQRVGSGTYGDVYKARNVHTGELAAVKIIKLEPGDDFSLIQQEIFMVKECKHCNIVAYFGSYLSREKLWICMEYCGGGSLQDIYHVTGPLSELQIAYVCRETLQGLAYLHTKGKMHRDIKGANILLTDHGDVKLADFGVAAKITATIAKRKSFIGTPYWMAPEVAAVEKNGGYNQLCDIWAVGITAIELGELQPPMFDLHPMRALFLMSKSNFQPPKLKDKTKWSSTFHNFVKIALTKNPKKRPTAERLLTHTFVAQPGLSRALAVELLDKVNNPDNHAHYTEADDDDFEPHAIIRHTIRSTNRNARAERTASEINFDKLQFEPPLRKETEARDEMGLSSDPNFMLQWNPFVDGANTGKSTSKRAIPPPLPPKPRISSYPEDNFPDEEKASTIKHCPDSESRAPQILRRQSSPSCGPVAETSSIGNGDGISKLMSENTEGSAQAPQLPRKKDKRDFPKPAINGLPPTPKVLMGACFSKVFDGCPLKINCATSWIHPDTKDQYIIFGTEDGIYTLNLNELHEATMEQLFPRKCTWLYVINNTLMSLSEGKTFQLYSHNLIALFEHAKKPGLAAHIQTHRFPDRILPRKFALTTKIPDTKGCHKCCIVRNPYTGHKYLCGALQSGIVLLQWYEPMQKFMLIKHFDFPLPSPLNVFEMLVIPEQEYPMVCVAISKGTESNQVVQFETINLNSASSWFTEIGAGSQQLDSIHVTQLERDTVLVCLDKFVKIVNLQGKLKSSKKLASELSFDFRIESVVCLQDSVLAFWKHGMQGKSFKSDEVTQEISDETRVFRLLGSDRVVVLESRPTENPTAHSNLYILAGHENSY

As to `COc1ccc2sc(-c3cncc(N)c3)nc2c1` [compound 1, 5-(5-Methoxybenzo[d]thiazol-2-yl)pyridin-3-amine], the remaining activity (commonly the signal under treatment as a percentage of the control signal) at 1 µM came to 108% on IR (IR, 1 μM); 99% on CAMK1 (CAMK1, 1 μM); 102% at ERK2 (ERK2, 1 μM); 112% at MARK2 (MARK2, 1 μM); 107% at Aurora B (Aurora B, 1 μM); 99% on PLK1 (PLK1, 1 μM). In addition, the remaining activity at 1 µM came to 86% at ERK8 (ERK8, 1 μM); 98% on SmMLCK; 106% at MAP4K5 (MAP4K5, 1 μM); 107% at TSSK1 (TSSK1, 1 μM); 108% at MINK1 (MINK1, 1 μM); 112% on EF2K (EF2K, 1 μM). Moreover, the remaining activity at 100 µM on IR (IR, 100 μM) was 45%; at CAMK1 (CAMK1, 100 μM), 52%; at ERK2 (ERK2, 100 μM), 96%; at MARK2 (MARK2, 100 μM), 62%; at Aurora B (Aurora B, 100 μM), 21%; at PLK1 (PLK1, 100 μM) it was 73%. Moreover, the remaining activity at 100 µM at ERK8 (ERK8, 100 μM) came out at 4%; on SmMLCK, 41%; on MAP4K5 (MAP4K5, 100 μM) it was 61%; on TSSK1 (TSSK1, 100 μM), 70%; at MINK1 (MINK1, 100 μM) it was 36%; on EF2K (EF2K, 100 μM) it was 84%.

In the case of `COc1ccc2sc(-c3cncc(NC(C)=O)c3)nc2c1` [PST-001, N-(5-(5-Methoxybenzo[d]thiazol-2-yl)pyridin-3-yl)acetamide], the remaining activity at 1 µM on IR was 116%; on ERK2 it was 115%; on MARK2, 116%; at Aurora B, 106%; at PLK1, 112%; at ERK8, 89%. Besides, the remaining activity at 1 µM at SmMLCK amounted to 118%; on MAP4K5, 82%; at TSSK1, 124%; at MINK1 it was 104%; at EF2K, 113%. The remaining activity at 100 µM at IR was 120%; on CAMK1 it was 100%; on ERK2, 112%; at MARK2, 106%; on Aurora B, 24%; at PLK1, 115%. Moreover, the remaining activity at 100 µM amounted to 28% on ERK8; 99% on SmMLCK; 92% on MAP4K5; 114% on TSSK1; 88% at MINK1; 106% at EF2K.
